Assay results from patent publication US12576155B2, “Senolytic and antiinflammatory prodrugs and methods of use thereof” (priority 2019, dated 2026).

System: SARS-CoV-2-infected rhesus macaques
Experiment: SARS-CoV-2-infected rhesus macaques, late-stage SSK1 treatment (i.v. once a day 22 to 28 dpi)
Format: in vivo
Experimental: To evaluate the therapeutic effect of SSK1 on the recovery period of SARS-CoV-2 infection, we used nine rhesus macaques of three different ages as reported before (Lu et al., 2020). All the animals were inoculated with total 4.75 ml of 10^6 pfu/ml SARS-CoV-2 intratracheally (4.00 ml), intranasally (0.50 ml) and on conjunctiva (0.25 ml). The nine rhesus macaques were divided into three groups according to the treatments, which included vehicle (DMSO), low dosage (0.5 mg/kg) and high dosage (2.0 mg/kg) of SSK1, respectively. Each group randomly selected one young, one adult and one old monkey. The final grouping is presented as following: the vehicle-treated group, RM1 (young), RM2 (adult) and RM3 (old); 0.5 mg/kg SSK1-treated group, RM4 (young), RM5 (adult) and RM6 (old); 2.0 mg/kg SSK1-treated group, RM7 (young), RM8 (adult) and RM9 (old). […] For each group, vehicle (DMSO), low dosage SSK1 (0.5 mg/kg) and high dosage SSK1 (2.0 mg/kg) were administrated intravenously (i.v.) once a day from 22 to 28 dpi. Animals were anesthetized and clinical exams were performed daily. We recorded the body weight, anal temperature on each examination day and collected blood samples for hematology analysis as well as swabs form nasal, throat and rectal for virus quantitative detection. The monkeys were euthanized on 34, 35 and 36 dpi. We collected the bronchoalveolar lavage fluid (BALF) with 10 ml PBS (Gibco, Cat #21-040-CVC) and recorded the pathological changes of all organs. Tissue samples collected from all organs and the BALF were further analyzed.
100 mg/ml SSK1 dissolved in DMSO (Life Science, Cat #1087C114) was mixed in 95% PBS (Gibco, Cat #21-040-CVC), 5% Tween-80 (BioFroxx, Cat #1716) and administrated intravenously (i.v.) at the dosage of 0.5 mg/kg or 2.0 mg/kg to monkeys at the indicated time point (the injection finished within 5-10 minutes). DMSO mixed in 95% PBS (Gibco, Cat #21-040-CVC), 5% Tween-80 (BioFroxx, Cat #1716) was intravenously (i.v.) injected as vehicle.
The blood samples were collected from saphenous vein of hind limb of anaesthetized monkeys using 5 ml blood collection tube containing sodium citrate anti-coagulant for further analysis. For Complete Blood Count (CBC), Auto Hematology Analyzer (BC-5000 Vet, Mindray, China) was used. The white blood cells-related numbers and percentages of Neutrophil (Neu), Lymphocyte (Lym), Monocyte (Mon), Eosinophil (Eos), Basophil (Bas), and platelet-related items, platelet count (PLT), mean platelet volume (MPV), platelet distribution width (PDW), plateletcrit (PCT) were analyzed. For serum biochemical analysis, the blood was clotted for 30 min at 4° C. and centrifugated at 3,000×rpm for 15 min to obtain serum. The serum was used to analysis the alanine transaminase (ALT), aspartate transaminase (AST), alkaline phosphatase (ALP), uric acid (UA) and creatinine (CRE-E) by Chemistry Analyzer (Mindray, BS-350E).
The serum and BALF samples were collected for analysis of cytokine and chemokine. Concentration of granulocyte colony-stimulating factor (G-CSF), granulocyte-macrophage colony-stimulating factor (GM-CSF), interferon (IFN)-γ, interleukin (IL)-1 receptor antagonist, IL-1β, IL-2, IL-4, IL-5, IL-6, IL-8, IL-10, IL-12/23 (p40), IL-13, IL-15, IL-17, IL-18, monocyte chemotactic protein (MCP)-1, macrophage inflammatory protein (MIP)-1α, MIP-1β, soluble CD40-ligand (sCD40L), transforming growth factor (TGF)-α, tumor necrosis factor (TNF)-α, vascular endothelial growth factor (VEGF) were determined using the Non-Human Primate Cytokine MILLIPLEX map 23-plex kit (Millipore, Cat #PRCYTOMAG-40K) according to the manufacturer's instructions.
Autopsies of the rhesus macaques were performed according to a standard protocol. After the dissection, the major organs were grossly examined. The lung tissues were harvested, fixed in 10% neutral-buffered formalin solution, embedded in paraffin and 2 μm tissue sections were prepared. […]

With `CC(=O)OCC1O[C@@H](Oc2ccc(COC(=O)Nc3ccn([C@@H]4O[C@H](CO)C(O)C4(F)F)c(=O)n3)cc2[N+](=O)[O-])C(OC(C)=O)C(OC(C)=O)[C@H]1OC(C)=O` (some centres unmarked) [SSK1] the “Body weight change (32 dpi vs 22 dpi %)” value (RM4 young 1-year, 0.5 mg/kg) was “+25.00%”, the “Body weight change (32 dpi vs 22 dpi %)” value (RM5 adult 5-year, 0.5 mg/kg) was −3.45% and the “Body weight change (32 dpi vs 22 dpi %)” value (RM6 old 17-year, 0.5 mg/kg) was −1.25%. For the same compound, the “Body weight change (32 dpi vs 22 dpi %)” value (RM7 young 1-year, 2.0 mg/kg) was “+12.50%”, the “Body weight change (32 dpi vs 22 dpi %)” value (RM8 adult 5-year, 2.0 mg/kg) was “+9.68%” and the “Body weight change (32 dpi vs 22 dpi %)” value (RM9 old 18-year, 2.0 mg/kg) was “+1.82%”. The Body weight loss (SSK1 0.5 or 2.0 mg/kg, 22 to 32 dpi) was “effectively prevented body weight loss”, the “Pulmonary histology assessment (histologic lesions)” value (SSK1-treated animals vs vehicle) was “reduction in histologic lesions” and the “Diseased phenotype of lung sections (thickened alveolar septum, edema, hemorrhage; H&E staining)” value (SSK1-treated group vs vehicle) was “greatly improved”. The “Inflammatory cytokines in blood including IL-6, IL-8, IL-10, IL-15, TGF-α and MCP1” value (SSK1-treated old monkeys, especially at 2 mg/kg) was “reduced at 28 dpi compared with 21 dpi”, the “Serum level of IL-18” value (all high-dosage (2.0 mg/kg) SSK1-treated monkeys) was “increased level” and the “New lung lesions at necropsy” value (all six SSK1-treated monkeys) was “only found one exhibiting new lung lesions”. The “Macrophage infiltration in lung (CD68 immunohistochemistry)” value (especially at high dosages, in the elderly group) was “significantly reduced macrophage infiltration” and the Adverse effects (treated monkeys) was “did not observe any adverse effects”.
